ChEMBL document CHEMBL1151768, “Resin glycoside constituents of Ipomoea pes-caprae (beach morning glory)” (J Nat Prod, 2008)
Activity calls are given as the source filed them.

Tests used:
[1] = system: Candida albicans; test: Antimicrobial activity against Candida albicans by agar dilution method; type: functional, organism-based
[2] = system: Klebsiella aerogenes; test: Antimicrobial activity against Enterobacter aerogenes by agar dilution method; type: functional, organism-based
[3] = biological target: Mu-type opioid receptor (Rattus norvegicus) (UniProt P33535); test: Displacement of [3H]DAMGO from rat mu opioid receptor expressed in GH3 cells; type: cell-based
Sequence of Mu-type opioid receptor (Rattus norvegicus) (P33535 whole entry): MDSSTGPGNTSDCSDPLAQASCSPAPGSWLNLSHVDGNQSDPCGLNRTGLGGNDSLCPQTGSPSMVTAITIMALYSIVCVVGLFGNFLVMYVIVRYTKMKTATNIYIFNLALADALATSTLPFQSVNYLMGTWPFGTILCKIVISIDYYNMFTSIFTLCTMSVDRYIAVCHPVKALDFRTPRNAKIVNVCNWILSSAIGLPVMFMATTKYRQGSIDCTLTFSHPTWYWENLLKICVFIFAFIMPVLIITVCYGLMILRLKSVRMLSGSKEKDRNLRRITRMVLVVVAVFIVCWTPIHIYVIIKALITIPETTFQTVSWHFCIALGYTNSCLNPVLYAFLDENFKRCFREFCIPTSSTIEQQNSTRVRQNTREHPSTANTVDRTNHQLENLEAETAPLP

[4] = system: Bacillus subtilis; test: Antimicrobial activity against Bacillus subtilis by agar dilution method; type: functional, organism-based
[5] = system: Staphylococcus aureus; test: Antimicrobial activity against Staphylococcus aureus by agar dilution method; type: functional, organism-based
[6] = system: Escherichia coli; test: Antimicrobial activity against Escherichia coli by agar dilution method; type: functional, organism-based
[7] = system: Bel-7402; test: Cytotoxicity against human BEL-7402 cells by SRB method; type: functional, cell-based
[8] = system: HL-60; test: Cytotoxicity against human HL60 cells by MTT assay; type: functional, cell-based
[9] = system: A549; test: Cytotoxicity against human A549 cells by SRB method; type: functional, cell-based
[10] = system: P388; test: Cytotoxicity against mouse P388 cells by MTT assay; type: functional, cell-based

Measured: Activity

CCCCCCCCCC(=O)O[C@H]1[C@H](O[C@@H]2[C@@H](O)[C@H]3OC(=O)CCCCCCCCCC[C@H](CCCCC)O[C@@H]4O[C@H](C)[C@H](O)[C@H](O)[C@H]4O[C@@H]3O[C@H]2C)O[C@@H](C)[C@H](O[C@@H]2O[C@@H](C)[C@H](OC(=O)C(C)C)[C@@H](OC(=O)/C=C/c3ccccc3)[C@H]2O)[C@H]1O[C@@H]1O[C@@H](C)[C@H](O)[C@@H](O)[C@H]1O
inactive: all assays above
